Target: T1, K-Ras G12C (Homo sapiens, UniProt P01116, G12C)
T1 construct: This protein contained 188 amino acids in total, including an N-terminal 6-Histidine tag; made in house; host or cells: E. coli BL21
Assay: CAF assay (% CAF; method in Example 7, not in this part)
Format: binding
Conditions: for % CAF @ 10 μM, 1 h: Table 4

SMILES | % CAF @ 10 uM, 1h (10 uM, 1 h, Table 3) | % CAF @ 10 uM, 1h (10 uM compound, 1 h incubation) | also measured
C[C@H]1CN(C(=O)/C=C/C(F)F)CCN1c1nc(=O)n2c3c(c(-c4ccc(F)cc4F)c(Cl)cc13)SCC2 [Example 119, 9-chloro-7-((S)-4-((E)-4,4-difluorobut-2-enoyl)-2-methylpiperazin-1-yl)-10-(2,4-difluorophenyl)-2,3-dihydro-5H-[1,4]thiazino[2,3,4-ij]quinazolin-5-one] | 97.1% | – | –
C=CC(=O)N1CCN(c2nc(=O)n3c4c(c(-c5ccc(F)c(C#N)c5)c(Cl)cc24)SCC3)[C@@H](C)C1 [Example 83, (S)-5-(7-(4-acryloyl-2-methylpiperazin-1-yl)-9-chloro-5-oxo-2,3-dihydro-5H-[1,4]thiazino[2,3,4-ij]quinazolin-10-yl)-2-fluorobenzonitrile] | 85.3% | – | –
C=CC(=O)N1CCN(c2nc(=O)n3c4c(c(-c5ccc(F)cc5F)c(Cl)cc24)S(=O)(=O)CC3)[C@@H](C)C1 [Example 149, (S)-7-((S)-4-acryloyl-2-methylpiperazin-1-yl)-9-chloro-10-(2,4-difluorophenyl)-2,3-dihydro-5H-[1,4]thiazino[2,3,4-ij]quinazolin-5-one 1,1-dioxide] | 52.8% | – | –
C=CC(=O)N1CCN(c2nc(=O)n3c4c(c(-c5ccc(F)cc5)c(C(F)(F)F)cc24)SC[C@@H]3CN2CCn3c(nnc3C(F)(F)F)C2)[C@@H](C)C1 [Example 430, (S)-7-((S)-4-acryloyl-2-methylpiperazin-1-yl)-10-(4-fluorophenyl)-9-(trifluoromethyl)-3-((3-(trifluoromethyl)-5,6-dihydro-[1,2,4]triazolo[4,3-a]pyrazin-7(8H)-yl)methyl)-2H-[1,4]thiazino[2,3,4-ij]quinazolin-5(3H)-one] | – | 90.9% | –
C=CC(=O)N1CCN(c2nc(=O)n3c4c(c(-c5ccc(F)cc5F)c(Cl)cc24)SC[C@H]3COC)[C@@H](C)C1 [Example 130, (3R)-7-((S)-4-acryloyl-2-methylpiperazin-1-yl)-9-chloro-10-(2,4-difluorophenyl)-3-(methoxymethyl)-2,3-dihydro-5H-[1,4]thiazino[2,3,4-ij]quinazolin-5-one] | 94.5% | – | % CAF @ 10 μM, 1 h (1 h): 94.5%
C=CC(=O)N1CCN(c2nc(=O)n3c4c(c(-c5c(C)ccc6[nH]ncc56)c(Cl)cc24)SCC3)[C@@H](C)C1 [Example 159, 7-((S)-4-acryloyl-2-methylpiperazin-1-yl)-9-chloro-10-(5-methyl-1H-indazol-4-yl)-2,3-dihydro-5H-[1,4]thiazino[2,3,4-ij]quinazolin-5-one] | 37.2% | – | –
C=CC(=O)N1CCN(c2nc(=O)n3c4c(c(-c5cc(F)c(F)cc5F)c(Cl)cc24)SCC3)[C@@H](C)C1 [Example 409, 7-((S)-4-acryloyl-2-methylpiperazin-1-yl)-9-chloro-10-(2,4,5-trifluorophenyl)-2,3-dihydro-5H-[1,4]thiazino[2,3,4-ij]quinazolin-5-one] | – | 94% | –
C=CC(=O)N1C[C@H](C)N(c2nc(=O)n3c4c(c(-c5ccc(F)cc5F)c(Cl)cc24)SCC3)C[C@H]1C [Example 189, 7-((2S,5R)-4-acryloyl-2,5-dimethylpiperazin-1-yl)-9-chloro-10-(2,4-difluorophenyl)-2,3-dihydro-5H-[1,4]thiazino[2,3,4-ij]quinazolin-5-one] | 93.8% | – | –
C=CC(=O)N1CCN(c2nc(=O)n3c4c(c(-c5ccc(F)cc5F)c(C(F)(F)F)cc24)S(=O)(=O)C[C@@H]3CC2CCN(CC)CC2)[C@@H](C)C1 [Example 434, (3S)-7-((S)-4-acryloyl-2-methylpiperazin-1-yl)-10-(2,4-difluorophenyl)-3-((1-ethylpiperidin-4-yl)methyl)-9-(trifluoromethyl)-2H-[1,4]thiazino[2,3,4-ij]quinazolin-5(3H)-one 1,1-dioxide] | – | 51.5% | –
C=CC(=O)N1C[C@H](C)N(c2nc(=O)n3c4c(c(-c5ccc(F)cc5F)c(Cl)cc24)S(=O)(=O)CC3)C[C@H]1C (atropisomer, axis not shown) [Example 178, (R)-7-((2S,5R)-4-acryloyl-2,5-dimethylpiperazin-1-yl)-9-chloro-10-(2,4-difluorophenyl)-2,3-dihydro-5H-[1,4]thiazino[2,3,4-ij]quinazolin-5-one 1,1-dioxide] | 58.3% | – | –
C=CC(=O)N1CCN(c2nc(=O)n3c4c(c(-c5ccc(F)cc5)c(Cl)cc24)SC[C@H]3CC2CCN(CC(F)F)CC2)[C@@H](C)C1 [Example 349, (R)-7-((S)-4-acryloyl-2-methylpiperazin-1-yl)-9-chloro-3-((1-(2,2-difluoroethyl)piperidin-4-yl)methyl)-10-(4-fluorophenyl)-2H-[1,4]thiazino[2,3,4-ij]quinazolin-5(3H)-one] | – | – | % CAF @ 10 μM, 1 h (1 h): 94%

Second part, led by results:

% CAF @ 10 uM, 1h (10 uM, 1 h, Table 3) | % CAF @ 10 uM, 1h (10 uM compound, 1 h incubation) | SMILES | also measured
– | 97% | C=CC(=O)N1CCN(c2nc(=O)n3c4c(c(-c5ccc(F)cc5)c(Cl)cc24)SC[C@@H](OC)C3)CC1 [Example 536, (S)-8-(4-acryloylpiperazin-1-yl)-10-chloro-11-(4-fluorophenyl)-3-methoxy-3,4-dihydro-2H,6H-[1,4]thiazepino[2,3,4-ij]quinazolin-6-one] | –
– | 65.8% | C=CC(=O)N1C[C@H](C)N(c2nc(=O)n3c4c(c(-c5ccc(F)cc5)c(Cl)cc24)SC[C@@H]3CN2CCC3(CC2)COC3)C[C@H]1C [Example 473, (S)-3-(2-oxa-7-azaspiro[3.5]nonan-7-ylmethyl)-7-((2S,5R)-4-acryloyl-2,5-dimethylpiperazin-1-yl)-9-chloro-10-(4-fluorophenyl)-2H-[1,4]thiazino[2,3,4-ij]quinazolin-5(3H)-one] | –
– | 97% | C=CC(=O)N1CCN(c2nc(=O)n3c4c(c(-c5ccc(F)cc5)c(C(F)(F)F)cc24)SC[C@@H](OC)C3)[C@@H](C)C1 [Example 532, (S)-8-((S)-4-acryloyl-2-methylpiperazin-1-yl)-11-(4-fluorophenyl)-3-methoxy-10-(trifluoromethyl)-3,4-dihydro-2H,6H-[1,4]thiazepino[2,3,4-ij]quinazolin-6-one] | –
– | 71% | C=CC(=O)N1CCN(c2nc(=O)n3c4c(c(-c5ccc(F)cc5F)c(C(F)(F)F)cc24)S[C@H](COC)C3)[C@@H](C)C1 [Example 507, (2S)-7-((S)-4-acryloyl-2-methylpiperazin-1-yl)-10-(2,4-difluorophenyl)-2-(methoxymethyl)-9-(trifluoromethyl)-2,3-dihydro-5H-[1,4]thiazino[2,3,4-ij]quinazolin-5-one] | –
– | 79.5% | C=CC(=O)N1C[C@H](C)N(c2nc(=O)n3c4c(c(-c5cc(Cl)c(F)cc5F)c(Cl)cc24)SC[C@@H]3CC2CCN(CC(F)F)CC2)C[C@H]1C [Example 461, (3S)-7-((2S,5R)-4-acryloyl-2,5-dimethylpiperazin-1-yl)-9-chloro-10-(5-chloro-2,4-difluorophenyl)-3-((1-(2,2-difluoroethyl)piperidin-4-yl)methyl)-2H-[1,4]thiazino[2,3,4-ij]quinazolin-5(3H)-one] | –
– | 11.3% | C=CC(=O)N1C[C@H](C)N(c2nc(=O)n3c4c(c(-c5cc(Cl)c(F)cc5F)c(C(F)(F)F)cc24)SC[C@@H]3COCCOC)C[C@H]1C (atropisomer, axis not shown) [Example 554, (3S,10S)-7-((2S,5R)-4-acryloyl-2,5-dimethylpiperazin-1-yl)-10-(5-chloro-2,4-difluorophenyl)-3-((2-methoxyethoxy)methyl)-9-(trifluoromethyl)-2H-[1,4]thiazino[2,3,4-ij]quinazolin-5(3H)-one] | –
– | 98% | C=CC(=O)N1CCN(c2nc(=O)n3c4c(c(-c5ccc(F)cc5)c(Cl)cc24)SC[C@H](OC)C3)CC1 [Example 540, (R)-8-(4-acryloylpiperazin-1-yl)-10-chloro-11-(4-fluorophenyl)-3-methoxy-3,4-dihydro-2H,6H-[1,4]thiazepino[2,3,4-ij]quinazolin-6-one] | –
– | 64.4% | C=CC(=O)N1[C@H](C)CN(c2nc(=O)n3c4c(c(-c5cc(Cl)c(F)cc5F)c(C(F)(F)F)cc24)SC[C@@H]3COCOC)C[C@@H]1C [Example 567, (3S)-7-((3S,5R)-4-acryloyl-3,5-dimethylpiperazin-1-yl)-10-(5-chloro-2,4-difluorophenyl)-3-((methoxymethoxy)methyl)-9-(trifluoromethyl)-2H-[1,4]thiazino[2,3,4-ij]quinazolin-5(3H)-one] | –
– | 67.6% | C=CC(=O)N1C[C@H](C)N(c2nc(=O)n3c4c(c(-c5cc(Cl)c(F)cc5F)c(C(F)(F)F)cc24)SC[C@@H]3COCCOC)C[C@H]1C (atropisomer, axis not shown) [Example 555, (3S,10R)-7-((2S,5R)-4-acryloyl-2,5-dimethylpiperazin-1-yl)-10-(5-chloro-2,4-difluorophenyl)-3-((2-methoxyethoxy)methyl)-9-(trifluoromethyl)-2,3-dihydro-5H-[1,4]thiazino[2,3,4-ij]quinazolin-5-one] | –
– | 91.5% | C=CC(=O)N1C[C@H](C)N(c2nc(=O)n3c4c(c(-c5ccc(F)cc5F)c(C(F)(F)F)cc24)SC[C@@H]3CN2CCN(C3CC3)CC2)C[C@H]1C (single isomer, unassigned) [Example 580] | –
– | 69% | C=CC(=O)N1CCN(c2nc(=O)n3c4c(c(-c5cc(F)c(F)cc5F)c(Cl)cc24)SC[C@@H]3CN2CCn3c(nnc3C(F)(F)F)C2)[C@@H](C)C1 [Example 463, (3S)-7-((S)-4-acryloyl-2-methylpiperazin-1-yl)-9-chloro-3-((3-(trifluoromethyl)-5,6-dihydro-[1,2,4]triazolo[4,3-a]pyrazin-7(8H)-yl)methyl)-10-(2,4,5-trifluorophenyl)-2H-[1,4]thiazino[2,3,4-ij]quinazolin-5(3H)-one] | –
– | 40% | C=CC(=O)N1[C@H](C)CN(c2nc(=O)n3c4c(c(-c5ccc(F)cc5F)c(C(F)(F)F)cc24)SC[C@H](N(C)C)C3)C[C@@H]1C [Example 586, (3R)-8-((3S,5R)-4-acryloyl-3,5-dimethylpiperazin-1-yl)-11-(2,4-difluorophenyl)-3-(dimethylamino)-10-(trifluoromethyl)-3,4-dihydro-2H,6H-[1,4]thiazepino[2,3,4-ij]quinazolin-6-one] | –

Source: US20230107642A1 (Erasca, Inc., priority 2020, published 2023)
